# Laboratory results: article PMC9862759 (Viruses, 2023)
# Values joined by “and” are separate entries in the source; they are usually repeats but may differ in a detail not shown here. Equal values may be shown once. Read-outs that look alike come from different tables or passages of the source.
# Key:
# Beas-2B cells = assay: MTT cytotoxicity on human normal cell line Beas-2B (24 h); type: cell-based; details: for IC50: Homo sapiens, BEAS-2B, 24 h, read-out: IC50 Values of Human Normal Cell Lines, Beas-2B
# HEK-293T-ACE2^h cells = assay: MTT cytotoxicity assay on host cells (4 h); type: cell-based, human; details: for CC0 (maximum nontoxic concentration) / TC50 (concentration reducing cell viability by 50%): MTT, 4 h
# HEK 293 cells = assay: MTT cytotoxicity on human normal cell line HEK 293 (24 h); type: cell-based; details: for IC50: Homo sapiens, HEK293, 24 h, read-out: IC50 Values of Human Normal Cell Lines, HEK 293
# SARS-CoV-2 pseudovirus [1] = assay: microbe, parasite or virus in culture; details: Severe acute respiratory syndrome-related coronavirus, read-out: IC50 (inhibition of pseudovirus entry into host cells)
# LO2 cells = assay: MTT cytotoxicity on human normal cell line LO2 (24 h); type: cell-based; details: for IC50: Homo sapiens, L02, 24 h, read-out: IC50 Values of Human Normal Cell Lines, LO2
# SARS-CoV-2 pseudovirus [2] = system: SARS-CoV-2 pseudovirus
# [3] = biological target: SARS-CoV-2 spike RBD protein (Severe acute respiratory syndrome coronavirus 2, UniProt P0DTC2); assay: biochemical; type: binding
SMILES,IC50 (Beas-2B cells),CC0 (maximum nontoxic concentration) (HEK-293T-ACE2^h cells),TC50 (concentration reducing cell viability by 50%) (HEK-293T-ACE2^h cells),IC50 (HEK 293 cells),IC50 (SARS-CoV-2 pseudovirus [1]),IC50 (LO2 cells),SI (ratio of TC50 to IC50) (SARS-CoV-2 pseudovirus [2]),"cytotoxic effect (in words), Beas-2B (Beas-2B cells; tested dose of 500 μM)",cytotoxicity to the host cells (in words) (HEK-293T-ACE2^h cells; 500 μM),"cytotoxic effect (in words), HEK 293 (HEK 293 cells; tested dose of 500 μM)","cytotoxic effect (in words), LO2 (LO2 cells; tested dose of 500 μM)",binding signal [3],IC50 (SARS-CoV-2 pseudovirus [2]; read-out: IC50 (inhibition of pseudovirus entry into host cells))
"O=c1c(O[C@@H]2O[C@H](CO)[C@@H](O)[C@H](O)[C@H]2O)c(-c2ccc(O)c(O)c2)oc2cc(O)cc(O)c12 [compound 18, Isoquercitrin]",> 500 µM,300 µM,>500 µM,> 500 µM,94.4 ± 1.59 µM,> 500 µM,>5.30,–,–,–,–,–,–
"O=c1c(O)c(-c2cc(O)c(O)c(O)c2)oc2cc(O)cc(O)c12 [compound 16, Myricetin]",> 500 µM,300 µM,>500 µM,> 500 µM,–,> 500 µM,–,did not show any significant cytotoxic effect,did not demonstrate any cytotoxicity,did not show any significant cytotoxic effect,did not show any significant cytotoxic effect,0.60 nm,–
"Oc1cc(O)c2c(c1)O[C@H](c1ccc(O)c(O)c1)[C@H](O)C2 [compound 22, (-)-Epicatechin]",> 500 µM,300 µM,>500 µM,> 500 µM,146 ± 20.8 µM,> 500 µM,>3.43,–,–,–,–,–,–
"COc1c(O)cc2oc(-c3ccccc3)cc(=O)c2c1O [compound 8, Oroxylin A]",> 300 µM,100 µM,>300 µM,> 300 µM,< 50 µM,> 300 µM,>8.08,–,–,–,–,–,37.1 ± 2.58 µM
"O=c1cc(-c2ccccc2)oc2cc(O[C@@H]3O[C@H](CO[C@@H]4O[C@H](CO)[C@@H](O)[C@H](O)[C@H]4O)[C@@H](O)[C@H](O)[C@H]3O)c(O)c(O)c12 [compound 11, Oroxin B]",> 300 µM,300 µM,>300 µM,> 300 µM,129 ± 19 µM,> 300 µM,>2.33,–,–,–,–,–,–
"O=c1cc(-c2ccc(O)c(O)c2)oc2c([C@@H]3O[C@H](CO)[C@@H](O)[C@H](O)[C@H]3O)c(O)cc(O)c12 [compound 5, Orientin]",> 500 µM,300 µM,>500 µM,> 500 µM,63.7 ± 9.61 µM,> 500 µM,>7.85,–,–,–,–,–,–
"O=c1cc(-c2ccccc2)oc2cc(O[C@@H]3O[C@H](CO)[C@@H](O)[C@H](O)[C@H]3O)c(O)c(O)c12 [compound 10, Oroxin A]",> 300 µM,300 µM,>300 µM,258 ± 10.6 µM,84.6 ± 10.8 µM,> 300 µM,>3.55,–,–,–,–,–,–
"O=c1cc(-c2ccccc2)oc2cc(O)c(O)c(O)c12 [compound 7, Baicalein]",494 ± 9.64 µM,200 µM,>500 µM,> 500 µM,51 ± 6.48 µM,> 500 µM,>9.80,–,–,–,–,–,–
"Oc1cc(O)c2c(c1)O[C@H](c1cc(O)c(O)c(O)c1)[C@H](O)C2 [compound 23, (-)-Epigallocatechin]",369 ± 1.7 µM,200 µM,453.10 ± 4.55 µM,> 500 µM,74.2 ± 10.7 µM,483.3 ± 1.52 µM,6.11,–,–,–,–,–,–
"Oc1cc(O)c2c(c1)O[C@H](c1ccc(O)c(O)c1)[C@H](O)[C@H]2c1c(O)cc(O)c2c1O[C@H](c1ccc(O)c(O)c1)[C@H](O)[C@H]2c1c(O)cc(O)c2c1O[C@H](c1ccc(O)c(O)c1)[C@H](O)C2 [compound 31, Procyanidin C-1]",> 500 µM,300 µM,>500 µM,> 500 µM,173 ± 20.7 µM,> 500 µM,>2.90,–,–,–,–,–,–
"O=c1c(O[C@@H]2O[C@H](CO)[C@H](O)[C@H](O)[C@H]2O)c(-c2ccc(O)c(O)c2)oc2cc(O)cc(O)c12 [compound 19, Hyperoside]",> 500 µM,300 µM,>500 µM,> 500 µM,83.1 ± 10.7 µM,> 500 µM,>6.02,–,–,–,–,–,–
"O=c1c(O[C@@H]2O[C@H](CO)[C@@H](O)[C@H](O)[C@H]2O)c(-c2ccc(O)cc2)oc2cc(O)cc(O)c12 [compound 17, Astragalin]",> 500 µM,300 µM,>500 µM,> 500 µM,133 ± 16.2 µM,> 500 µM,>3.76,–,–,–,–,–,–
"C[C@@H]1O[C@@H](OC[C@H]2O[C@@H](Oc3c(-c4ccc(O)c(O)c4)oc4cc(O)cc(O)c4c3=O)[C@H](O)[C@@H](O)[C@@H]2O)[C@H](O)[C@H](O)[C@H]1O [compound 20, Rutin]",> 500 µM,300 µM,>500 µM,> 500 µM,147 ± 21.1 µM,> 500 µM,>3.40,–,–,–,–,–,–
"COc1c(O[C@@H]2O[C@H](C(=O)O)[C@@H](O)[C@H](O)[C@H]2O)cc(O)c2c(=O)cc(-c3ccccc3)oc12 [compound 13, Wogonoside]",> 500 µM,300 µM,>500 µM,> 500 µM,119 ± 21 µM,> 500 µM,>4.20,–,–,–,–,–,–
"COc1ccc2cc1Oc1ccc(cc1)C[C@H]1c3c(cc4c(c3Oc3cc5c(cc3OC)CCN(C)[C@@H]5C2)OCO4)CCN1C [Cepharanthine, reference compound]",26.1 ± 1.08 µM,6.25 µM,11.54 µM and 11.54 ± 1.39 µM,24.3 ± 0.22 µM,1.3 ± 0.18 µM,16.06 ± 0.13 µM,8.88,–,–,–,–,–,–
"Oc1cc(O)c2c(c1)O[C@H](c1ccc(O)c(O)c1)[C@@H](O)[C@@H]2c1c(O)cc(O)c2c1O[C@H](c1ccc(O)c(O)c1)[C@H](O)C2 [compound 30, Procyanidin B-4]",> 500 µM,300 µM,>500 µM,> 500 µM,151 ± 28.1 µM,> 500 µM,>3.30,–,–,–,–,–,–
"O=C(O[C@@H]1Cc2c(O)cc(O)cc2O[C@@H]1c1ccc(O)c(O)c1)c1cc(O)c(O)c(O)c1 [compound 24, (-)-Epicatechin gallate]",> 500 µM,300 µM,>500 µM,> 500 µM,58.8 ± 3.25 µM,> 500 µM,>8.51,–,–,–,–,–,–
"O=C(O)[C@H]1O[C@@H](Oc2cc3oc(-c4ccccc4)cc(=O)c3c(O)c2O)[C@H](O)[C@@H](O)[C@@H]1O [compound 12, Baicalin]",> 500 µM,300 µM,>500 µM,> 500 µM,110 ± 11 µM,> 500 µM,>4.56,–,–,–,–,–,–
"Oc1cc(O)c2c(c1)OC(c1ccc(O)c(O)c1)C(O)C2 (racemic) [compound 21, (±)-Catechin]",> 500 µM,300 µM,>500 µM,> 500 µM,157 ± 12 µM,> 500 µM,>3.19,–,–,–,–,–,–
